The results in this text go back to PubChem BioAssay AID280 (DTP/NCI, 2004).

“And” between values parts separate entries of the source, which are not always exact repeats. Identical values can stand only once. Inconclusive results and toxic doses are left out.

In the test the test system is nude mice, LOX melanoma ip, survival T/C. Put plainly: NCI In Vivo Anticancer Drug Screen. Data for tumor model Human Amelanotic Melanoma (LOX) (intraperitoneal) in NU/NU BALB/C (nude) mice. The following applies: endpoint: median survival time, schedule: Q04DX003 (ip), higher = longer survival. On the procedure: The antitumor activity of compounds was measured in mice bearing transplantable tumors. Survival or tumor size were measured and the results are expressed as the measurement made in the treated group (T) divided by the measurement made in the vehicle treated control group (C). The tumor model used in this assay is Human Amelanotic Melanoma (LOX) (intraperitoneal) in NU/NU BALB/C (nude) mice

The mark [1] stands for this setting: dose: 37.5 mg/kg/injection, vehicle: saline.
[2] abbreviates: dose: 75.0 mg/kg/injection, vehicle: saline.
Where [3] appears, read: dose: 150.0 mg/kg/injection, vehicle: saline.
Setting [4] is: dose: 300.0 mg/kg/injection, vehicle: saline.
[5] abbreviates: dose: 600.0 mg/kg/injection, vehicle: saline.
Where [6] appears, read: dose: 6.25 mg/kg/injection, vehicle: DMSO.
Setting [7] is: dose: 12.5 mg/kg/injection, vehicle: DMSO.
The mark [8] stands for this setting: dose: 25.0 mg/kg/injection, vehicle: DMSO.
Setting [9] is: dose: 50.0 mg/kg/injection, vehicle: DMSO.

For the compound `O=C(/C=C/c1ccccc1)c1ccccc(=O)c1O`, the T/C is 100 % of control (dose: 6.85 mg/kg/injection, vehicle: Klucel (hydroxypropylcellulose) (HPC)); 97 % of control (dose: 13.7 mg/kg/injection, vehicle: Klucel (hydroxypropylcellulose) (HPC)); 104 % of control (dose: 27.5 mg/kg/injection, vehicle: Klucel (hydroxypropylcellulose) (HPC)); 108 % of control (dose: 55.0 mg/kg/injection, vehicle: Klucel (hydroxypropylcellulose) (HPC)); 94 % of control (dose: 110.0 mg/kg/injection, vehicle: Klucel (hydroxypropylcellulose) (HPC)).

Turning to `NNC(=O)c1ccncc1`, the T/C (dose: 18.75 mg/kg/injection, vehicle: saline) was 110 % of control and the T/C under setting [1] was 109 % of control.

For `CN=C(N)N/N=C(\C)c1ccc2oc3ccc(/C(C)=N/NC(N)=NC)cc3c2c1`, the T/C was 102 % of control and 123 % of control (dose: 18.0 mg/kg/injection, vehicle: Klucel (hydroxypropylcellulose) (HPC)); 117 % of control and 99 % of control (dose: 30.0 mg/kg/injection, vehicle: Klucel (hydroxypropylcellulose) (HPC)); 116 % of control (dose: 83.0 mg/kg/injection, vehicle: Klucel (hydroxypropylcellulose) (HPC)); 88 % of control (dose: 83.33 mg/kg/injection, vehicle: Klucel (hydroxypropylcellulose) (HPC)); 108 % of control (dose: 100.0 mg/kg/injection, vehicle: Klucel (hydroxypropylcellulose) (HPC)).

`C=CCOc1cc2c(cc1C(C)c1ccc(OC)cc1)OCO2` (configuration not stated): the T/C (dose: 37.5 mg/kg/injection, vehicle: Klucel (hydroxypropylcellulose) (HPC)) was 101 % of control; the T/C (dose: 75.0 mg/kg/injection, vehicle: Klucel (hydroxypropylcellulose) (HPC)) is 96 % of control; the T/C (dose: 150.0 mg/kg/injection, vehicle: Klucel (hydroxypropylcellulose) (HPC)) was 109 % of control; the T/C (dose: 300.0 mg/kg/injection, vehicle: Klucel (hydroxypropylcellulose) (HPC)) is 112 % of control.

In the case of `CC#CCOCC(O)CCl` (configuration not stated), the T/C reads like this: under setting [1], 97 % of control; under setting [2], 99 % of control; under setting [3], 102 % of control; under setting [4], 106 % of control; under setting [5], 110 % of control.

For `NC(=O)c1cc(Cl)nc2nc(Cl)nc(N)c12`, the T/C is, setting by setting: (dose: 150.0 mg/kg/injection, vehicle: saline with Tween-80) 92 % of control; (dose: 300.0 mg/kg/injection, vehicle: saline with Tween-80) 111 % of control; (dose: 600.0 mg/kg/injection, vehicle: saline with Tween-80) 94 % of control.

On to `COc1cc(C(CC(C)=O)c2cc3c(cc2OC(C)=O)OCO3)cc(OC)c1OC` (configuration not stated) (tested in a mixture with another compound), for which the T/C is 104 % of control (dose: 25.0 mg/kg/injection, vehicle: saline with Tween-80); 106 % of control (dose: 50.0 mg/kg/injection, vehicle: saline with Tween-80); 115 % of control (dose: 100.0 mg/kg/injection, vehicle: saline with Tween-80); 120 % of control (dose: 200.0 mg/kg/injection, vehicle: saline with Tween-80).

For the compound `CC1(C)Nc2cc3c(cc2-n2cccc21)oc1ccccc13`, the T/C reads like this: (dose: 37.5 mg/kg/injection, vehicle: DMSO) 100 % of control; (dose: 75.0 mg/kg/injection, vehicle: DMSO) 100 % of control; (dose: 150.0 mg/kg/injection, vehicle: DMSO) 117 % of control; (dose: 300.0 mg/kg/injection, vehicle: DMSO) 91 % of control.

As to `COC1=C(C)C(=O)C2=C(C1=O)C(CO)N1C(C#N)C3CC4C(C1C2N1CCOC41)N3C` (configuration not stated), the T/C reads like this: (dose: 0.63 mg/kg/injection, vehicle: acid diluted with saline) 109 % of control; (dose: 0.63 mg/kg/injection, vehicle: saline + alcohol) 122 % of control; (dose: 1.25 mg/kg/injection, vehicle: acid diluted with saline) 123 % of control; (dose: 2.5 mg/kg/injection, vehicle: acid diluted with saline) 115 % of control; (dose: 2.5 mg/kg/injection, vehicle: saline + alcohol) 168 % of control.

Consider `CCC(c1ccc(O)cc1)C(CC)c1ccc(OCCN)cc1` (configuration not stated), for which the T/C was 88 % of control (dose: 62.5 mg/kg/injection, vehicle: saline with Tween-80); 104 % of control (dose: 125.0 mg/kg/injection, vehicle: saline with Tween-80); 93 % of control (dose: 250.0 mg/kg/injection, vehicle: saline with Tween-80); 92 % of control (dose: 500.0 mg/kg/injection, vehicle: saline with Tween-80); 93 % of control (dose: 1000.0 mg/kg/injection, vehicle: saline with Tween-80).

On to `O=C(Nc1cccc(O)c1)C(Cl)=C(Cl)Cl`, for which the T/C under setting [6] was 96 % of control, the T/C under setting [7] was 91 % of control, the T/C under setting [8] is 95 % of control and the T/C under setting [9] is 94 % of control.

As to `c1ccc2[nH]c(CN(CCN(Cc3nc4ccccc4[nH]3)Cc3nc4ccccc4[nH]3)Cc3nc4ccccc4[nH]3)nc2c1`, the T/C was 102 % of control under setting [6], 110 % of control under setting [7], 113 % of control under setting [8] and 111 % of control under setting [9].

Consider `C=CC1(C)CC(=O)C2(O)C(C)(O1)C(OC(C)=O)C(O)C1C(C)(C)CCC(O)C12C` (configuration not stated), for which the T/C (dose: 8.0 mg/kg/injection, vehicle: DMSO) was 102 % of control; the T/C (dose: 16.0 mg/kg/injection, vehicle: DMSO) was 103 % of control; the T/C (dose: 32.0 mg/kg/injection, vehicle: DMSO) is 102 % of control; the T/C (dose: 64.0 mg/kg/injection, vehicle: DMSO) is 91 % of control.

Take `NCCSC(C[N+](=O)[O-])c1ccccc1Cl` (configuration not stated): the T/C is 107 % of control (dose: 12.5 mg/kg/injection, vehicle: saline); 115 % of control (dose: 25.0 mg/kg/injection, vehicle: saline); 96 % of control (dose: 50.0 mg/kg/injection, vehicle: saline).

With `OCC(O)C(O)C(O)C(O)CO` (configuration not stated), the T/C runs as follows: under setting [2], 97 % of control; under setting [3], 102 % of control; under setting [4], 97 % of control; under setting [5], 106 % of control; (dose: 1200.0 mg/kg/injection, vehicle: saline) 104 % of control.
